For orientation: melting point means the temperature, or range, at which the solid turns liquid. Usually IC50 stands for the concentration that inhibits the measured activity by half. A word on the inhibition: it is how much of the control response was suppressed.

Counter-ions that a name gives are not always drawn.

Among the data in patent US6599925B2 (Wyeth, priority 2001, dated 2003) are melting point, IC50 and inhibition values, retold here.

Data set [1] has as its target T1, recombinant human plasminogen activator inhibitor-1 (PAI-1) (Homo sapiens, UniProt P05121).
T1 construct: purchased Molecular Innovations, Royal Oak, Mich
Briefly: Primary Screen for the PAI-1 Inhibition (chromogenic tPA assay). The data set is classed as biochemical. As to conditions: for IC50: footnote b: determined by a modification of the Primary Screen for PAI-1 Inhibition; for inhibition at 25 µM: 25 μM test compound. Here is the method: Primary Screen for the PAI-1 Inhibition
Test compounds are dissolved in DMSO at a final concentration of 10 mM, then diluted 100×in physiologic buffer. The inhibitory assay is initiated by the addition of the test compound (1-100 μM final concentration, maximum DMSO concentration of 0.2%) in a pH 6.6 buffer containing 140 nM recombinant human plasminogen activator inhibitor-1 (PAI-1; Molecular Innovations, Royal Oak, Mich.). Following a 1 hour incubation at room temperature, 70 nM of recombinant human tissue plasminogen activator (tPA) is added, and the combination of the test compound, PAI-1 and tPA is incubated for an additional 30 minutes. Following the second incubation, Spectrozyme-tPA (American Diagnostica, Greenwich, Conn.), a chromogenic substrate for tPA, is added and absorbance read at 405 nm at 0 and 60 minutes. Relative PAI-1 inhibition is equal to the residual tPA activity in the presence of the test compounds and PAI-1. Control treatments include the complete inhibition of tPA by PAI-1 at the molar ratio employed (2:1), and the absence of any effect of the test compound on tPA alone.

The next data set concerns the target human PAI-1 (Homo sapiens, UniProt P05121). The experiment in a line: Assay for determining IC50 of inhibition of PAI-1 (Antibody Assay). The data set is classed as binding. As to conditions: footnote a: determined by the Antibody Assay; active PAI-1 bound to tPA-coated plate, pH 7.5. Here is the method: Assay for Determining IC50 of Inhibition of PAI-1
This assay is based upon the non-SDS dissociable interaction between tPA and active PAI-1. Assay plates are initially coated with human tPA (10 μg/ml). Test compounds are dissolved in DMSO at 10 mM, then diluted with physiologic buffer (pH 7.5) to a final concentration of 1-50 μM. The test compounds are incubated with human PAI-1 (50 ng/ml) for 15 minutes at room temperature. The tPA-coated plate is washed with a solution of 0.05% Tween 20 and 0.1% BSA, then the plate is blocked with a solution of 3% BSA. An aliquot of the test compound/PAI-1 solution is then added to the tPA-coated plate, incubated at room temperature for 1 hour, and washed. Active PAI-1 bound to the plate is assessed by adding an aliquot of a 1:1000 dilution of the 33B8 monoclonal antibody against human PAI-1, and incubating the plate at room temperature for 1 hour (Molecular Innovations, Royal Oak, Mich.). The plate is again washed, and a solution of goat anti-mouse IgG-alkaline phosphatase conjugate is added at a 1:50,000 dilution in goat serum. The plate is incubated 30 minutes at room temperature, washed, and a solution of alkaline phosphatase substrate is added. The plate is incubated 45 minutes at room temperature, and color development is determined at OD405nm. The quantitation of active PAI-1 bound to tPA at varying concentrations of the test compound is used to determine the IC50. Results are analyzed using a logarithmic best-fit equation. The assay sensitivity is 5 ng/ml of human PAI-1 as determined from a standard curve ranging from 0-100 ng/ml.

T1 sequence (P05121 24-402): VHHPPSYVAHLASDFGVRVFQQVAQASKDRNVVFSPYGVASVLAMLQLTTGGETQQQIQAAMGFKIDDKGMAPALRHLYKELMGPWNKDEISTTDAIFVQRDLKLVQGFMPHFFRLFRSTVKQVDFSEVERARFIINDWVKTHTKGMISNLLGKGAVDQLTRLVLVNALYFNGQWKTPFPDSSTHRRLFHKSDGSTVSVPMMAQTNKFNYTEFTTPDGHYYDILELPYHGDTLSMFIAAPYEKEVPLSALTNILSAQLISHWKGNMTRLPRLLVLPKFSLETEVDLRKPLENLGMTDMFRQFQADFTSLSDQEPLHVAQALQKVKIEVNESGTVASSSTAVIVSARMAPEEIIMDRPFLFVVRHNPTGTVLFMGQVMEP
Chain of human PAI-1 (P05121 24-402): as above

For `CCCCC(=O)c1c(-c2ccc3c(-c4ccc(C(F)(F)F)cc4)c(OCC(=O)O)ccc3c2)oc2ccccc12` (as salt: sodium) [Example 15, 2-({6-(3-Pentanoyl-1-benzofuran-2-yl)-1-[4-(trifluoromethyl)phenyl]-2-naphthyl}oxy) acetic acid, sodium salt], the melting point was 274 to 275 °C (dec.). Regarding `CCCCC(=O)c1c(-c2ccc3c(Br)c(OCc4nnn[nH]4)ccc3c2)oc2ccccc12` [Example 1, 1-{2-[5-Bromo-6-(1H-1,2,3,4-tetraazol-5-ylmethoxy)-2-naphthyl]-1-benzofuran-3-yl}-1-pentanone], the IC50 in data set [1] is 7.7 µM. The compound `CCCCC(=O)c1c(-c2ccc3cc(OCC(=O)O)ccc3c2)oc2ccccc12` [Example 2, 2-{[6-(3-pentanoyl-1-benzofuran-2-yl)-2-naphthyl]oxy}acetic acid] yielded a melting point of 130 to 132 °C. Moreover, the inhibition at 25 µM in data set [1] came to 43%. Compound `CCCCC(=O)c1c(-c2ccc3cc(OCc4nnn[nH]4)ccc3c2)oc2ccccc12` [Example 3, 1-{2-[6-(1H-1,2,3,4-Tetraazol-5-ylmethoxy)-2-naphthyl]-1-benzofuran-3-yl}-1-pentanone] yielded a melting point of 150 to 151 °C. Besides, the IC50 in data set [1] worked out at 12.7 µM. For `CCCCC(=O)c1c(-c2ccc3cc(OC(Cc4ccccc4)C(=O)O)ccc3c2)oc2ccccc12` (stereo not shown) [Example 4, 2-{[6-(3-Pentanoyl-1-benzofuran-2-yl)-2-naphthyl]oxy}-3-phenylpropanoic acid], the melting point lay within 144 to 145 °C. Further, half-maximal inhibition against human PAI-1 (IC50) was put at 16.6 µM. Compound `CCCCC(=O)c1c(-c2ccc3c(Br)c(OCC(=O)O)ccc3c2)oc2ccccc12` [Example 5, 2-{[1-Bromo-6-(3-pentanoyl-1-benzofuran-2-yl)-2-naphthyl]oxy}acetic acid] had a melting point of 146 to 147 °C. Moreover, in data set [1], the inhibition at 25 µM came to 47%. Regarding `CC(C)(C)CC(=O)c1c(-c2ccc3cc(OCC(=O)O)ccc3c2)oc2ccccc12` [Example 6, 2-({6-[3-(3,3-Dimethylbutanoyl)-1-benzofuran-2-yl]-2-naphthyl}oxy)acetic acid], the melting point fell in the range of 207 to 209 °C. The same compound returned an IC50 against human PAI-1 of 8.7 µM. For `CC(C)CC(=O)c1c(-c2ccc3c(Br)c(OCC(=O)O)ccc3c2)oc2ccccc12` [Example 7], the 50% inhibitory concentration (IC50) in data set [1] amounted to 14.7 µM. `CC(C)CC(=O)c1c(-c2ccc3cc(OCC(=O)O)cc(Br)c3c2)oc2ccccc12` [Example 7] came in with a melting point of 140 to 142 °C. The compound `CC(C)(C)CC(=O)c1c(-c2ccc3c(Br)c(OCC(=O)O)ccc3c2)oc2ccccc12` [Example 8, 2-({1-Bromo-6-[3-(3,3-dimethylbutanoyl)-1-benzofuran-2-yl]-2-naphthyl}oxy)acetic acid] showed a melting point of 151 to 153 °C. The half-inhibitory concentration (IC50) in data set [1] is 11.9 µM. In the case of `CC(C)CC(=O)c1c(-c2ccc3c(Br)c(OCc4nnn[nH]4)ccc3c2)oc2ccccc12` [Example 9, 1-{2-[5-Bromo-6-(1H-1,2,3,4-tetraazol-5-ylmethoxy)-2-naphthyl]-1-benzofuran-3-yl}-3-methyl-1-butanone], the melting point lay within 176 to 177 °C. The compound further yielded a half-maximal inhibitory concentration (IC50) on human PAI-1 of 18.7 µM. As for `O=C(O)COc1ccc2cc(-c3oc4ccccc4c3C(=O)CC3CCCC3)ccc2c1` [Example 10, 2-({6-[3-(2-Cyclopentylacetyl)-1-benzofuran-2-yl]-2-naphthyl}oxy)acetic acid], the melting point was 177 to 178 °C. In the case of `O=C(O)COc1ccc2cc(-c3oc4ccccc4c3CCC3CCCC3)ccc2c1Br` [Example 11, 2-({1-Bromo-6-[3-(2-cyclopentylethyl)-1-benzofuran-2-yl]-2-naphthyl}oxy)acetic acid], the melting point lay within 155 to 156 °C. Further, in data set [1], the inhibition at 25 µM was found to be 24%. As for `Brc1c(OCc2nnn[nH]2)ccc2cc(-c3oc4ccccc4c3CCC3CCCC3)ccc12` [Example 12, 5-[({1-Bromo-6-[3-(2-cyclopentylethyl)-1-benzofuran-2-yl]-2-naphthyl}oxy)methyl]-1H-1,2,3,4-tetraazole], the melting point is 192 to 194 °C.

On to `CCCCC(=O)c1c(-c2ccc3c(-c4ccc(C(F)(F)F)cc4)c(OCC(=O)O)ccc3c2)oc2ccccc12` [Example 15, 2-({6-(3-Pentanoyl-1-benzofuran-2-yl)-1-[4-(trifluoromethyl)phenyl]-2-naphthyl}oxy) acetic acid, sodium salt], for which it took 8.2 µM to reach half-maximal inhibition at human PAI-1 (IC50). On to `CCCCC(=O)c1c(-c2ccc3c(-c4ccc(C(F)(F)F)cc4)c(OCc4nnn[nH]4)ccc3c2)oc2ccccc12` [Example 18, 1-(2-{6-(1H-1,2,3,4-Tetraazol-5-ylmethoxy)-5-[4-(trifluoromethyl)phenyl]-2-naphthyl}-1-benzofuran-3-yl)-1-pentanone], for which the melting point fell in the range of 189 to 191 °C. Besides, in data set [1], the IC50 is 6 µM. `CCCCC(=O)c1c(-c2ccc3c(Br)c(OC(Cc4ccccc4)C(=O)O)ccc3c2)oc2ccccc12` (stereo not shown) [Example 19, 2-{[1-Bromo-6-(3-pentanoyl-1-benzofuran-2-yl)-2-naphthyl]oxy}-3-phenylpropanoic acid]: the melting point is 115 to 117 °C. Moreover, in data set [1], the half-maximal inhibitory concentration (IC50) was found to be 6.2 µM. With `CCCCCc1c(-c2ccc3c(C)c(OCc4nnn[nH]4)ccc3c2)oc2ccccc12` [Example 21, 5-({[1-Methyl-6-(3-pentyl-1-benzofuran-2-yl)-2-naphthyl]oxy}methyl)-1H-1,2,3,4-tetraazole], the melting point was 169 to 171 °C (dec.). Further, in data set [1], the inhibition at 25 µM came out at 31%.

For `O=C(O)COc1ccc2cc(-c3oc4ccccc4c3C(=O)c3ccccc3)ccc2c1` [Example 26, {[6-(3-benzoyl-1-benzofuran-2-yl)-2-naphthyl]oxy}acetic acid], the melting point lay in the range of 178 to 181 °C. Moreover, the inhibition at 25 µM in data set [1] came out at 49%. The matching figures for `O=C(c1ccccc1)c1c(-c2ccc3c(Br)c(OCc4nnn[nH]4)ccc3c2)oc2ccccc12` [Example 27, {2-[5-Bromo-6-(1H-tetraazol-5-ylmethoxy)-2-naphthyl]-1-benzofuran-3-yl}(phenyl) methanone]: > 183 °C (dec.) and 35%. With `O=C(O)C(Cc1ccccc1)Oc1ccc2cc(-c3oc4ccccc4c3Br)ccc2c1Br` (stereo not shown) [Example 28, 2-{[1-Bromo-6-(3-bromo-1-benzofuran-2-yl)-2-naphthyl]oxy}-3-phenylpropanoic acid], the melting point fell in the range of 206 to 209 °C. For the same compound, the inhibition at 25 µM in data set [1] worked out at 56%. In the same order, the values of `CCCCC(=O)c1c(-c2ccc3c(Br)c(OCc4nnn[nH]4)ccc3c2)oc2ccc(Cl)cc12` [Example 30, 1-{2-[5-Bromo-6-(1H-tetrazol-5-ylmethoxy)-naphthalen-2-yl]-5-chloro-benzofuran-3-yl}-pentan-1-one] are 133 to 135 °C and 46%. As to `CCCCC(=O)c1c(-c2ccc3c(Br)c(OCC(=O)O)ccc3c2)oc2ccc(Cl)cc12` [Example 31, [1-Bromo-6-(5-chloro-3-pentanoyl-benzofuran-2-yl)-naphthalen-2-yloxy]-acetic acid], the melting point was in the range of 130 to 132 °C. The IC50 in data set [1] amounted to 17.1 µM. In turn, `CCCCC(=O)c1c(-c2ccc3cc(OCc4nnn[nH]4)ccc3c2)oc2ccc(Cl)cc12` [Example 32, 1-{5-Chloro-2-[6-(1H-tetrazol-5-ylmethoxy)-naphthalen-2-yl]-benzofuran-3-yl}-pentan-1-one] returned a melting point of 178 to 180 °C. For the same compound, in data set [1], the inhibition at 25 µM was 39%.

`CCCCC(=O)c1c(-c2ccc3cc(OCC(=O)O)ccc3c2)oc2ccc(Cl)cc12` [Example 33, [6-(5-Chloro-3-pentanoyl-benzofuran-2-yl)-naphthalen-2-yloxy]-acetic acid] returned a melting point of 158 to 160 °C. Also, the half-inhibitory concentration (IC50) in data set [1] worked out at 10.4 µM. In the same order, the values of `CCCCCc1c(-c2ccc3cc(OCC(=O)O)ccc3c2)oc2ccccc12` [Example 35, [6-(3-Pentyl-benzofuran-2-yl)-naphthalen-2-yloxy]-acetic acid] are 163 to 165 °C and 4.39 µM. Take `CCCCCc1c(-c2ccc3c(Br)c(OCc4nn[nH]n4)ccc3c2)oc2ccccc12` [Example 37]: in data set [1], the half-maximal inhibitory concentration (IC50) is 4.59 µM.
